Four molecules from ChEMBL document CHEMBL3244272, “Folate antagonists. 15. 2,3-Diamino-6-(2-naphthylsulfonyl)quinazoline and related 2,4-diamino-6-[(phenyl and naphthyl)sulfinyl and sulfonyl]quinazolines, a potent new class of antimetabolites with phenomenal antimalarial activity” (J Med Chem, 1979) can be followed below.

Data set [1] deals with Plasmodium falciparum. The experiment in a line: Antimalarial activity against Plasmodium falciparum Vietnam Oak Knoll in po once daily dosed Owl monkey assessed as curative dose compound treated for 7 days. It counts as functional.
The test system of data set [2] is Plasmodium falciparum. The experiment in a line: Antimalarial activity against chloroquine-resistant, pyrimethamine-sensitive Plasmodium falciparum Vietnam Oak Knoll in Aotus monkey assessed as dose required to >50% cures compound treated for 7 days. It counts as functional.
Data set [3] relates to Plasmodium vivax. The experiment in a line: Antimalarial activity against Plasmodium vivax New Guinea Chesson in po once daily dosed Owl monkey assessed as curative dose compound treated for 7 days. It counts as functional.
Data set [4] has as its system Plasmodium falciparum. The experiment in a line: Antimalarial activity against chloroquine-sensitive, pyrimethamine-resistant Plasmodium falciparum Malayan Camp CH/Q infected in Aotus monkey assessed as dose required to >50% cures compound treated for 7 days. The class given is functional.
The test system of data set [5] is Plasmodium falciparum. The experiment in a line: Antimalarial activity against Plasmodium falciparum Vietnam Smith in po once daily dosed Owl monkey assessed as curative dose compound treated for 7 days. It counts as functional.
Data set [6] relates to Plasmodium vivax. The experiment in a line: Antimalarial activity against Plasmodium vivax VietnamPalo Alto in po once daily dosed Owl monkey assessed as curative dose compound treated for 7 days. It counts as functional.
For data set [7], the system named is Plasmodium falciparum. The experiment in a line: Antimalarial activity against Plasmodium falciparum Malayan Camp CH/Q infected in po once daily dosed Owl monkey assessed as curative dose compound treated for 7 days. It counts as functional.
Data set [8] deals with Plasmodium berghei. The experiment in a line: Antimalarial activity against trophozoite-induced Plasmodium berghei infected in sc dosed mouse assessed as minimum curative dose. It counts as functional.
Data set [9] deals with Plasmodium gallinaceum. The experiment in a line: Antimalarial activity against trophozoite-induced Plasmodium gallinaceum infected in chick assessed as mean survival time at 40 mg/kg, sc single dose (reference value: 4 days). The class given is functional. Particulars: route subcutaneous.
Data set [10] relates to Gallus gallus. The experiment in a line: Toxicity in trophozoite-induced Plasmodium gallinaceum infected in chick assessed as death at 20 mg/kg, sc single dose measured within 48 hrs. The class given is organism-based. Details: dose 20 mg/kg, route subcutaneous. Particulars: chicken, in vivo.
Data set [11] deals with Staphylococcus aureus. The experiment in a line: Antibacterial activity against Staphylococcus aureus S18713 assessed as growth inhibition. It counts as functional.
Data set [12] relates to Plasmodium gallinaceum. The experiment in a line: Antimalarial activity against trophozoite-induced Plasmodium gallinaceum infected in chick assessed as cured at 2.5 mg/kg, sc single dose. The class given is functional, organism-based. Details: dose 2.5 mg/kg.
Data set [13] has as its system Gallus gallus. The experiment in a line: Toxicity in trophozoite-induced Plasmodium gallinaceum infected in chick assessed as death at 10 mg/kg, sc single dose measured within 48 hrs. The class given is organism-based. The arrangement: dose 10 mg/kg, route subcutaneous. Particulars: chicken, in vivo.
For data set [14], the system named is Gallus gallus. The experiment in a line: Toxicity in trophozoite-induced Plasmodium gallinaceum infected in chick assessed as death at 2.5 mg/kg, sc single dose measured within 48 hrs. The class given is organism-based. The arrangement: dose 2.5 mg/kg, route subcutaneous. Particulars: chicken, in vivo.
In a further data set the test system is Pseudomonas aeruginosa. The experiment in a line: Antibacterial activity against Pseudomonas aeruginosa 28 assessed as growth inhibition. It counts as functional.
Data set [15] relates to Gallus gallus. The experiment in a line: Toxicity in trophozoite-induced Plasmodium gallinaceum infected in chick assessed as death at 5 mg/kg, sc single dose measured within 48 hrs. Particulars: chicken, in vivo. It counts as organism-based. The arrangement: dose 5 mg/kg, route subcutaneous.
Data set [16] deals with Gallus gallus. The experiment in a line: Toxicity in trophozoite-induced Plasmodium gallinaceum infected in chick assessed as death at 80 mg/kg, sc single dose measured within 48 hrs. It counts as organism-based. Details: dose 80 mg/kg, route subcutaneous. Particulars: chicken, in vivo.
Data set [17] relates to Gallus gallus. The experiment in a line: Toxicity in trophozoite-induced Plasmodium gallinaceum infected in chick assessed as death at 40 mg/kg, sc single dose measured within 48 hrs. It counts as organism-based. The arrangement: dose 40 mg/kg, route subcutaneous. Particulars: chicken, in vivo.
In data set [18] the test system is Plasmodium berghei. The experiment in a line: Antimalarial activity against trophozoite-induced Plasmodium berghei infected in mouse assessed as change in mean survival time at 5 mg/kg, sc single dose after 72 hrs of infection. Particulars: route subcutaneous. The class given is functional.
The subject of data set [19] is Plasmodium gallinaceum. The experiment in a line: Antimalarial activity against trophozoite-induced Plasmodium gallinaceum infected in chick assessed as mean survival time at 20 mg/kg, sc single dose (reference value: 4 days). The class given is functional. Particulars: route subcutaneous.
For data set [20], the system named is Plasmodium berghei. The experiment in a line: Antimalarial activity against trophozoite-induced Plasmodium berghei infected in mouse assessed as change in mean survival time at 10 mg/kg, sc single dose after 72 hrs of infection. The class given is functional. Particulars: route subcutaneous.
The next data set deals with Shigella sonnei. The experiment in a line: Antibacterial activity against Shigella sonnei C-10 assessed as growth inhibition. It counts as functional.
Data set [21] relates to Plasmodium gallinaceum. The experiment in a line: Antimalarial activity against trophozoite-induced Plasmodium gallinaceum infected in chick assessed as cured at 5 mg/kg, sc single dose. The class given is functional, organism-based. Details: dose 5 mg/kg.
The test system of data set [22] is Plasmodium gallinaceum. The experiment in a line: Antimalarial activity against trophozoite-induced Plasmodium gallinaceum infected in chick assessed as mean survival time at 10 mg/kg, sc single dose (reference value: 4 days). The class given is functional. Particulars: route subcutaneous.
In a further data set the test system is Escherichia coli. The experiment in a line: Antibacterial activity against Escherichia coli Vogel assessed as growth inhibition. It counts as functional.
Data set [23] has as its system Gallus gallus. The experiment in a line: Toxicity in trophozoite-induced Plasmodium gallinaceum infected in chick assessed as death at 160 mg/kg, sc single dose measured within 48 hrs. It counts as organism-based. The arrangement: dose 160 mg/kg, route subcutaneous. Particulars: chicken, in vivo.
Data set [24] concerns Plasmodium berghei. The experiment in a line: Antimalarial activity against trophozoite-induced Plasmodium berghei infected in mouse assessed as change in mean survival time at 1.25 mg/kg, sc single dose after 72 hrs of infection. The class given is functional. Particulars: route subcutaneous.
For data set [25], the system named is Plasmodium berghei. The experiment in a line: Antimalarial activity against trophozoite-induced Plasmodium berghei infected in mouse assessed as change in mean survival time at 2.5 mg/kg, sc single dose after 72 hrs of infection. It counts as functional. Particulars: route subcutaneous.
Data set [26] concerns Plasmodium gallinaceum. The experiment in a line: Antimalarial activity against trophozoite-induced Plasmodium gallinaceum infected in chick assessed as mean survival time at 2.5 mg/kg, sc single dose (reference value: 4 days). It counts as functional. Particulars: route subcutaneous.
The test system of data set [27] is Staphylococcus aureus. The experiment in a line: Antibacterial activity against Staphylococcus aureus UC-76 assessed as growth inhibition. It counts as functional.
The test system of data set [28] is Plasmodium gallinaceum. The experiment in a line: Antimalarial activity against trophozoite-induced Plasmodium gallinaceum infected in chick assessed as mean survival time at 5 mg/kg, sc single dose (reference value: 4 days). Particulars: route subcutaneous. It counts as functional.
A further data set concerns Enterococcus faecalis. The experiment in a line: Antibacterial activity against Streptococcus faecalis MGH-2 assessed as growth inhibition. The class given is functional.
Data set [29] has as its system Plasmodium berghei. The experiment in a line: Antimalarial activity against trophozoite-induced Plasmodium berghei infected in mouse assessed as change in mean survival time at 640 mg/kg, sc single dose after 72 hrs of infection. It counts as functional. Particulars: route subcutaneous.
Data set [30] has as its system Plasmodium berghei. The experiment in a line: Antimalarial activity against trophozoite-induced Plasmodium berghei infected in mouse assessed as change in mean survival time at 40 mg/kg, sc single dose after 72 hrs of infection. It counts as functional. Particulars: route subcutaneous.
Data set [31] concerns Plasmodium berghei. The experiment in a line: Antimalarial activity against trophozoite-induced Plasmodium berghei infected in mouse assessed as change in mean survival time at 20 mg/kg, sc single dose after 72 hrs of infection. The class given is functional. Particulars: route subcutaneous.
In data set [32] the test system is Plasmodium berghei. The experiment in a line: Antimalarial activity against trophozoite-induced Plasmodium berghei infected in mouse assessed as change in mean survival time at 160 mg/kg, sc single dose after 72 hrs of infection. It counts as functional. Particulars: route subcutaneous.
The subject of data set [33] is Plasmodium berghei. The experiment in a line: Antimalarial activity against trophozoite-induced Plasmodium berghei infected in mouse assessed as change in mean survival time at 80 mg/kg, sc single dose after 72 hrs of infection. It counts as functional. Particulars: route subcutaneous.
In data set [34] the test system is Plasmodium berghei. The experiment in a line: Antimalarial activity against trophozoite-induced Plasmodium berghei infected in mouse assessed as change in mean survival time at 320 mg/kg, sc single dose after 72 hrs of infection. Particulars: route subcutaneous. It counts as functional.

≈ marks a conversion by molar mass, not a printed value. Calls of active or inactive are those of the source. The rule behind the calls is not given here.

For the molecule `CCN(CC)CCCC(C)Nc1ccnc2cc(Cl)ccc12` (configuration not stated) [CHLOROQUINE], the CD90 was 2 mg/kg in the data set on Plasmodium falciparum [1]; 2.5 mg/kg in the data set on Plasmodium vivax [3]; over 20 mg/kg with Plasmodium falciparum [5]; 2.5 mg/kg with Plasmodium vivax [6]; 5 mg/kg with Plasmodium falciparum [7]. Besides, the results for the Activity in the data set with Plasmodium falciparum [2] and with Plasmodium falciparum [4] were over 20 mg/kg and 5 mg/kg, respectively.

Take `C=C[C@H]1CN2CC[C@H]1C[C@H]2[C@H](O)c1ccnc2ccc(OC)cc12.Cl` [QUININE HYDROCHLORIDE]: the CD90 was 80 mg/kg with Plasmodium falciparum [1]; 40 mg/kg in the data set with Plasmodium vivax [3]; over 80 mg/kg with Plasmodium falciparum [5]; 40 mg/kg in the data set on Plasmodium vivax [6]; 20 mg/kg in the data set with Plasmodium falciparum [7]. Besides, the Activity in the data set with Plasmodium falciparum [2] came to 40 mg/kg; in the data set on Plasmodium falciparum [4], 80 mg/kg.

As a reminder, the MIC is the lowest concentration found to suppress growth. Turning to `Nc1nc(N)c2cc([S+]([O-])c3ccc(Cl)cc3)ccc2n1` (configuration not stated), the MCD in the data set on Plasmodium berghei [8] worked out at 40 mg/kg. The MST with Plasmodium gallinaceum [9] came out at 27.5 days; in the data set with Plasmodium berghei [18] it was 4.8 days; with Plasmodium gallinaceum [19] it was 23 days; with Plasmodium berghei [20], 7.3 days; in the data set on Plasmodium gallinaceum [22], 23 days; with Plasmodium berghei [24] it was 4.2 days. In addition, the MST in the data set with Plasmodium berghei [25] is 6 days; with Plasmodium gallinaceum [26], 4 days; in the data set with Plasmodium gallinaceum [28] it was 15.8 days. In addition, the Activity entry in the data set with Gallus gallus [10], with Gallus gallus [13], with Gallus gallus [14], in the data set with Gallus gallus [15], in the data set with Gallus gallus [16] and in the data set with Gallus gallus [17] was “Toxic” throughout. Also, the Activity entry with Gallus gallus [23] is “Toxic”. Besides, the MIC with Staphylococcus aureus [11] was under 0.25 µg/mL; in the data set on Pseudomonas aeruginosa it was over 25 µg/mL; in the data set with Shigella sonnei, 20 µg/mL (≈ 62.7 µM); in the data set on Escherichia coli, 1.5 µg/mL (≈ 4.71 µM); in the data set with Staphylococcus aureus [27], under 0.25 µg/mL; in the data set on Enterococcus faecalis it was under 0.25 µg/mL. For the same molecule, the result with Plasmodium gallinaceum [12] and in the data set with Plasmodium gallinaceum [21] was Active.

For the molecule `Nc1nc(N)c2cc(S(=O)(=O)c3ccccc3-c3ccccc3)ccc2n1`, the MCD in the data set on Plasmodium berghei [8] worked out at 640 mg/kg. The MIC was over 25 µg/mL in the data set with Staphylococcus aureus [11]; over 25 µg/mL in the data set with Pseudomonas aeruginosa; over 25 µg/mL in the data set on Shigella sonnei; over 25 µg/mL with Escherichia coli; over 25 µg/mL with Staphylococcus aureus [27]; 0.25 µg/mL (≈ 0.664 µM) with Enterococcus faecalis. Moreover, the MST with Plasmodium berghei [29] worked out at 1.1 days; in the data set with Plasmodium berghei [30], 0.3 days; with Plasmodium berghei [31] it was 0.3 days; in the data set with Plasmodium berghei [32], 0.7 days; in the data set with Plasmodium berghei [33], 0.5 days; in the data set with Plasmodium berghei [34], 0.7 days.
